Measurements reported in the NIST ThermoML archive (doi:10.1016/j.jct.2015.01.001).
Where “and” joins values, the source holds several entries; their conditions need not be identical. Equal values may be shown once.

Columns and labels:
[1] = Liquid; for vapor or sublimation pressure: Closed cell (Static) method; for viscosity: Falling or rolling sphere viscometry; for mass density: Vibrating tube method
[2] = xn = mol fraction of the nth substance listed; details: Liquid; for viscosity: Falling or rolling sphere viscometry; for mass density: Vibrating tube method

CO [methanol]
[1]
Details	mass density [kg/m3]	vapor or sublimation pressure [kPa]	viscosity [mPa·s]
298.15 K	786.7	17	0.544
303.15 K	782	21.9	0.512
308.15 K	777.3	27.9	0.486
313.15 K	772.5	35.6	0.46

CO [methanol] + O=C=O
[2], x2 = 0
Details	mass density [kg/m3]	viscosity [mPa·s]
298.15 K, 17 kPa	786.7	0.544
303.15 K, 21.9 kPa	782	0.512
308.15 K, 27.9 kPa	777.3	0.486
313.15 K, 35.6 kPa	772.5	0.46

O=S1(=O)CCCC1 [sulfolane]
[1]
Details	mass density [kg/m3]	viscosity
303.15 K	1262	10.3 mPa·s and 10.2 mPa·s
313.15 K	1253	8.01 mPa·s
323.15 K	1244	6.32 mPa·s
333.15 K	1235	5.16 mPa·s
343.15 K	1226	4.22 mPa·s
353.15 K	1218	3.5 mPa·s
363.15 K	1209	2.92 mPa·s

O=C=O [carbon dioxide] + CO
[2]
Details	mass density [kg/m3]	viscosity [mPa·s]
298.15 K, 467.6 kPa, x1 = 0.037	792.7	0.523
298.15 K, 1827.6 kPa, x1 = 0.155	811.4	0.45
298.15 K, 2059.2 kPa, x1 = 0.176	814.6	0.436
298.15 K, 2411.7 kPa, x1 = 0.207	819.5	0.418
298.15 K, 2609.8 kPa, x1 = 0.225	822.2	0.407
298.15 K, 3070.8 kPa, x1 = 0.268	828.6	0.383
303.15 K, 514.4 kPa, x1 = 0.034	787	0.497
303.15 K, 1357.8 kPa, x1 = 0.099	796.3	0.459
303.15 K, 2202.1 kPa, x1 = 0.164	805.7	0.421
303.15 K, 2582.4 kPa, x1 = 0.194	809.9	0.403
303.15 K, 2803.7 kPa, x1 = 0.212	812.4	0.392
303.15 K, 3272.7 kPa, x1 = 0.249	817.7	0.37
308.15 K, 543.8 kPa, x1 = 0.032	783.2	0.467
308.15 K, 1454.6 kPa, x1 = 0.094	791.6	0.434
308.15 K, 2129.6 kPa, x1 = 0.14	797.9	0.408
308.15 K, 2391.6 kPa, x1 = 0.158	800.3	0.398
308.15 K, 2760.3 kPa, x1 = 0.184	803.7	0.385
308.15 K, 3001.7 kPa, x1 = 0.201	806	0.375
308.15 K, 3529.4 kPa, x1 = 0.238	810.9	0.356
313.15 K, 629.5 kPa, x1 = 0.031	777.5	0.443
313.15 K, 1587.2 kPa, x1 = 0.091	787.1	0.41
313.15 K, 2265.6 kPa, x1 = 0.133	793.6	0.39
313.15 K, 2523.6 kPa, x1 = 0.149	796	0.378
313.15 K, 2943.3 kPa, x1 = 0.175	800.1	0.368
313.15 K, 3205.9 kPa, x1 = 0.191	802.6	0.356
313.15 K, 3774.9 kPa, x1 = 0.227	808	0.337
